ChEMBL document CHEMBL1201862, “PubChem BioAssay data set” (2004)
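Following 48 hours of exposure in 96-well plates, responses at five concentrations were used to interpolate endpoints linearly. The concentration for 50% growth inhibition is given as GI50.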 Activity calls are given as the source filed them. No stated cut-off is given here; in the data, active = GI50 up to about 1.1 µM and inactive = higher.

Experiments:
Assay in all cases: growth of human tumour cells (NCI), 48 h
786-0 = test system: 786-0
A498 = test system: A498
A549 = test system: A549
ACHN = test system: ACHN
CAKI-1 = test system: CAKI-1
CCRF-CEM = test system: CCRF-CEM
COLO 205 = test system: COLO 205
DLD-1 = test system: DLD-1
DMS-114 = test system: DMS-114
DMS-273 = test system: DMS-273
EKVX = test system: EKVX
HCC 2998 = test system: HCC 2998
HCT-116 = test system: HCT-116
HCT-15 = test system: HCT-15
HL-60 = test system: HL-60
HOP-18 = test system: HOP-18
HOP-62 = test system: HOP-62
HOP-92 = test system: HOP-92
HT-29 = test system: HT-29
IGROV-1 = test system: IGROV-1
K562 = test system: K562
KM-20L2 = test system: KM-20L2
KM12 = test system: KM12
LOX IMVI = test system: LOX IMVI
LXFL 529 = test system: LXFL 529
M14 = test system: M14
M19-MEL = test system: M19-MEL
MOLT-4 = test system: MOLT-4
Malme-3M = test system: Malme-3M
NCI-H226 = test system: NCI-H226
NCI-H23 = test system: NCI-H23
NCI-H460 = test system: NCI-H460
NCI-H522 = test system: NCI-H522
OVCAR-3 = test system: OVCAR-3
OVCAR-4 = test system: OVCAR-4
OVCAR-5 = test system: OVCAR-5
OVCAR-8 = test system: OVCAR-8
RPMI-8226 = test system: RPMI-8226
RXF 393 = test system: RXF 393
SF-268 = test system: SF-268
SF-295 = test system: SF-295
SF-539 = test system: SF-539
SK-MEL-28 = test system: SK-MEL-28
SK-MEL-2 = test system: SK-MEL-2
SK-MEL-5 = test system: SK-MEL-5
SN12C = test system: SN12C
SNB-19 = test system: SNB-19
SNB-75 = test system: SNB-75
SNB-78 = test system: SNB-78
SR = test system: SR
SW-620 = test system: SW-620
TK-10 = test system: TK-10
U-251 = test system: U-251
UACC-257 = test system: UACC-257
UACC-62 = test system: UACC-62
UO-31 = test system: UO-31
SK-OV-3 = test system: SK-OV-3
DU-145 = test system: DU-145

COc1ccc(/C=C2\CCC(CCN(C)C)(C3=CCCC3)C2=O)cc1 (stereo not given)
GI50 (786-0): 15.3 µM (inactive) | GI50 (A498): 17.7 µM (inactive) | GI50 (A549): 19.2 µM (inactive) | GI50 (ACHN): 16.9 µM (inactive) | GI50 (CAKI-1): 10.7 µM (inactive) | GI50 (CCRF-CEM): 17.1 µM (inactive) | GI50 (COLO 205): 12.8 µM (inactive) | GI50 (DLD-1): 26.4 µM (inactive) | GI50 (DMS-114): 15.6 µM (inactive) | GI50 (DMS-273): 17.1 µM (inactive) | GI50 (EKVX): 14 µM (inactive) | GI50 (HCC 2998): 18.6 µM (inactive) | GI50 (HCT-116): 15.1 µM (inactive) | GI50 (HCT-15): 22.3 µM | GI50 (HL-60): 15.9 µM (inactive) | GI50 (HOP-18): 14.1 µM (inactive) | GI50 (HOP-62): 18 µM (inactive) | GI50 (HOP-92): 20.7 µM (inactive) | GI50 (HT-29): 15.5 µM (inactive) | GI50 (IGROV-1): 16.7 µM (inactive) | GI50 (K562): 15.7 µM (inactive) | GI50 (KM-20L2): 14.1 µM (inactive) | GI50 (KM12): 18 µM (inactive) | GI50 (LOX IMVI): 16.6 µM (inactive) | GI50 (LXFL 529): 16.7 µM (inactive) | GI50 (M14): 15.1 µM (inactive) | GI50 (M19-MEL): 15.1 µM (inactive) | GI50 (MOLT-4): 23.9 µM (inactive) | GI50 (Malme-3M): 16 µM (inactive) | GI50 (NCI-H226): 20.6 µM (inactive) | GI50 (NCI-H23): 29 µM (inactive) | GI50 (NCI-H460): 20.1 µM (inactive) | GI50 (NCI-H522): 16.1 µM (inactive) | GI50 (OVCAR-3): 19.1 µM (inactive) | GI50 (OVCAR-4): 19.7 µM (inactive) | GI50 (OVCAR-5): 21.5 µM (inactive) | GI50 (OVCAR-8): 16.8 µM (inactive) | GI50 (RPMI-8226): 20.8 µM (inactive) | GI50 (RXF 393): 7.6 µM (inactive) | GI50 (SF-268): 18.2 µM (inactive) | GI50 (SF-295): 18.7 µM (inactive) | GI50 (SF-539): 16.1 µM (inactive) | GI50 (SK-MEL-28): 19 µM (inactive) | GI50 (SK-MEL-2): 17.6 µM (inactive) | GI50 (SK-MEL-5): 16.5 µM (inactive) | GI50 (SN12C): 19.9 µM (inactive) | GI50 (SNB-19): 16.6 µM (inactive) | GI50 (SNB-75): 19 µM (inactive) | GI50 (SNB-78): 21.8 µM (inactive) | GI50 (SR): 27.2 µM (inactive) | GI50 (SW-620): 16.8 µM (inactive) | GI50 (TK-10): 16.7 µM (inactive) | GI50 (U-251): 16.5 µM (inactive) | GI50 (UACC-257): 16.9 µM (inactive) | GI50 (UACC-62): 16.4 µM (inactive) | GI50 (UO-31): 14.8 µM (inactive)

COc1cc2c[n+](C)c3c4cc(OC)c(OC(C)C)cc4ccc3c2cc1OC
GI50 (786-0): > 100 µM (inactive) | GI50 (A549): 77.6 µM (inactive) | GI50 (ACHN): > 100 µM (inactive) | GI50 (CAKI-1): > 100 µM (inactive) | GI50 (CCRF-CEM): 56.2 µM (inactive) | GI50 (COLO 205): 10.5 µM (inactive) | GI50 (DLD-1): > 100 µM (inactive) | GI50 (DMS-114): 5.85 µM (inactive) | GI50 (DMS-273): 27.2 µM (inactive) | GI50 (EKVX): > 100 µM (inactive) | GI50 (HCC 2998): 44.2 µM (inactive) | GI50 (HCT-116): > 100 µM (inactive) | GI50 (HCT-15): > 100 µM | GI50 (HL-60): 35.2 µM (inactive) | GI50 (HOP-18): 49.7 µM (inactive) | GI50 (HOP-62): > 100 µM (inactive) | GI50 (HOP-92): 73.6 µM (inactive) | GI50 (HT-29): 49.3 µM (inactive) | GI50 (IGROV-1): 45.1 µM (inactive) | GI50 (K562): 32.3 µM (inactive) | GI50 (KM-20L2): 62.7 µM (inactive) | GI50 (KM12): 29.8 µM (inactive) | GI50 (LOX IMVI): 46.5 µM (inactive) | GI50 (LXFL 529): 7.35 µM (inactive) | GI50 (M14): 84.9 µM (inactive) | GI50 (M19-MEL): 18.4 µM (inactive) | GI50 (MOLT-4): 50.5 µM (inactive) | GI50 (Malme-3M): 29.4 µM (inactive) | GI50 (NCI-H226): 98.4 µM (inactive) | GI50 (NCI-H23): 48.6 µM (inactive) | GI50 (NCI-H460): 75.3 µM (inactive) | GI50 (NCI-H522): 16.9 µM (inactive) | GI50 (OVCAR-3): 10.5 µM (inactive) | GI50 (OVCAR-4): 62.7 µM (inactive) | GI50 (OVCAR-5): 69.7 µM (inactive) | GI50 (OVCAR-8): 35.4 µM (inactive) | GI50 (RPMI-8226): 36.2 µM (inactive) | GI50 (RXF 393): > 100 µM (inactive) | GI50 (SF-268): 47 µM (inactive) | GI50 (SF-295): > 100 µM (inactive) | GI50 (SF-539): > 100 µM (inactive) | GI50 (SK-MEL-28): 57.7 µM (inactive) | GI50 (SK-MEL-2): 20.1 µM (inactive) | GI50 (SK-MEL-5): 23.4 µM (inactive) | GI50 (SK-OV-3): > 100 µM (inactive) | GI50 (SN12C): 37.8 µM (inactive) | GI50 (SNB-19): 51.8 µM (inactive) | GI50 (SNB-75): 44.9 µM (inactive) | GI50 (SNB-78): 50 µM (inactive) | GI50 (SR): 43.2 µM (inactive) | GI50 (SW-620): 36.3 µM (inactive) | GI50 (TK-10): > 100 µM (inactive) | GI50 (U-251): 29.6 µM (inactive) | GI50 (UACC-257): 29.4 µM (inactive) | GI50 (UACC-62): 37.3 µM (inactive) | GI50 (UO-31): > 100 µM (inactive)

O=C1C(=Cc2c(O)cc(O)cc2O)C(=O)c2ccccc21
GI50 (786-0): > 42.1 µM (inactive) | GI50 (A498): 45.1 µM (inactive) | GI50 (A549): > 100 µM (inactive) | GI50 (ACHN): > 40.8 µM (inactive) | GI50 (CAKI-1): > 45.9 µM (inactive) | GI50 (CCRF-CEM): 29.9 µM (inactive) | GI50 (COLO 205): > 41.5 µM (inactive) | GI50 (DLD-1): > 40.6 µM (inactive) | GI50 (DMS-114): > 100 µM (inactive) | GI50 (DMS-273): > 100 µM (inactive) | GI50 (DU-145): 19.1 µM (inactive) | GI50 (EKVX): > 79.8 µM (inactive) | GI50 (HCC 2998): > 41.9 µM (inactive) | GI50 (HCT-116): > 39.3 µM (inactive) | GI50 (HCT-15): > 46.8 µM | GI50 (HL-60): 16.8 µM (inactive) | GI50 (HOP-18): 27.4 µM (inactive) | GI50 (HOP-62): > 100 µM (inactive) | GI50 (HOP-92): > 38.5 µM (inactive) | GI50 (HT-29): > 42.1 µM (inactive) | GI50 (IGROV-1): > 43.5 µM (inactive) | GI50 (K562): > 51.8 µM (inactive) | GI50 (KM-20L2): > 43.5 µM (inactive) | GI50 (KM12): > 36.7 µM (inactive) | GI50 (LOX IMVI): 15.4 µM (inactive) | GI50 (LXFL 529): > 43.5 µM (inactive) | GI50 (M14): > 43.3 µM (inactive) | GI50 (M19-MEL): > 38.5 µM (inactive) | GI50 (MOLT-4): 39.8 µM (inactive) | GI50 (Malme-3M): > 44.6 µM (inactive) | GI50 (NCI-H226): 36 µM (inactive) | GI50 (NCI-H23): > 39.4 µM (inactive) | GI50 (NCI-H460): > 45.5 µM (inactive) | GI50 (NCI-H522): > 46 µM (inactive) | GI50 (OVCAR-3): > 40.6 µM (inactive) | GI50 (OVCAR-4): > 48.2 µM (inactive) | GI50 (OVCAR-5): > 43 µM (inactive) | GI50 (OVCAR-8): > 41.7 µM (inactive) | GI50 (RPMI-8226): 29 µM (inactive) | GI50 (RXF 393): 14.3 µM (inactive) | GI50 (SF-268): > 45.4 µM (inactive) | GI50 (SF-295): > 41.9 µM (inactive) | GI50 (SF-539): > 42.7 µM (inactive) | GI50 (SK-MEL-28): > 45.8 µM (inactive) | GI50 (SK-MEL-2): > 40.1 µM (inactive) | GI50 (SK-MEL-5): > 100 µM (inactive) | GI50 (SK-OV-3): > 100 µM (inactive) | GI50 (SN12C): 19.5 µM (inactive) | GI50 (SNB-19): > 42.6 µM (inactive) | GI50 (SNB-75): 26.3 µM (inactive) | GI50 (SNB-78): 23.8 µM (inactive) | GI50 (SR): 13.6 µM (inactive) | GI50 (SW-620): > 42.1 µM (inactive) | GI50 (TK-10): > 46.6 µM (inactive) | GI50 (U-251): > 42.9 µM (inactive) | GI50 (UACC-257): > 42.5 µM (inactive) | GI50 (UACC-62): > 40.5 µM (inactive) | GI50 (UO-31): > 100 µM (inactive)
